Assay [1] concerns the target T1, 5‐LO (Homo sapiens, UniProt P09917).
T1 sequence (P09917 1-674): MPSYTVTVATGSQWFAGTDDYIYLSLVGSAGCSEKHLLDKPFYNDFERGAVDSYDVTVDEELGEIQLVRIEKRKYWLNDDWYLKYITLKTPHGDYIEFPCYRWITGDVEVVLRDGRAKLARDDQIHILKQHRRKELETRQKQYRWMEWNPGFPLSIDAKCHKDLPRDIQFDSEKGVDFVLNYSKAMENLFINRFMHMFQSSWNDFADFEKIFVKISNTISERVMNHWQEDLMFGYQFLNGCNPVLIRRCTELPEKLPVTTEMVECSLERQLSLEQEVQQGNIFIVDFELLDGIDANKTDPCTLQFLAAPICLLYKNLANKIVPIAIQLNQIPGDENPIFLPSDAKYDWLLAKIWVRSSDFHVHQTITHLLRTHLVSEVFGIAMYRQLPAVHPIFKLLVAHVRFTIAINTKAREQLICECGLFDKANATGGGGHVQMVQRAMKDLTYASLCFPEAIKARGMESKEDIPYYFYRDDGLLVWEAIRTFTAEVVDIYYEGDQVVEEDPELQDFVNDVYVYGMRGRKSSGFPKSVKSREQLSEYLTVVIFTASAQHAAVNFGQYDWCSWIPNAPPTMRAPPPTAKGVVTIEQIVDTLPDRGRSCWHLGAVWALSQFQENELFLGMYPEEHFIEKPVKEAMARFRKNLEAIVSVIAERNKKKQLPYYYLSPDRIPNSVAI
In words: Biosynthesis of 5‐LO products in stimulated HEK293 cells expressing 5‐LO and FLAP. To be noted: 1 μmol/L, 5 min preincubation; 10 μmol/L A23187 + 10 μmol/L arachidonic acid 15 min. Further details: expressed in transfected cells; host or cells: HEK293 cells (ATCC), stably transfected. It counts as cell-based. As to the method:
HEK293 cells were obtained from ATCC (Manassas) and were cultured in Dulbecco’s Modified Eagle Medium (DMEM) supplemented with 10% fetal bovine serum. Cells were stably transfected with 5‐lipoxygenase and 5‐lipoxygenase activating protein (FLAP) as previously described.31
Transfected HEK293 cells were collected and resuspended in Hank's balanced salt solution (HBSS, Lonza) containing 1.6 mmol/L CaCl2 at a concentration of 5 × 10^5 cells/mL, and were preincubated with each compound at concentration of 1 µmol/L for 5 minutes at 37°C. Cells were then stimulated for 15 minutes at 37°C with the addition of 10 µmol/L calcium ionophore A23187 (Sigma‐Aldrich) and 10 µmol/L arachidonic acid (Cayman Chemical).28 Stimulations were stopped by adding 0.5 volume of cold CH3OH:CH3CN (1:1) containing 100 ng/mL of prostaglandin B2 (PGB2) as internal standard. Samples were stored at −20°C and analyzed for 5‐LO products using reversed‐phase high‐performance liquid chromatography (RP‐HPLC) as described previously.32
Figure 2 The structures of the tested compounds (A) and their effects on the biosynthesis of 5‐LO products in transfected HEK293 cells (B). HEK293 cells expressing 5‐LO and FLAP were incubated in presence of the indicated compounds (1 μmol/L) or their diluent (Control, 0.1% DMSO) for 5 minutes, followed by the addition of 10 μmol/L calcium ionophore A23187 and 10 μmol/L arachidonic acid for 15 minutes. Reactions were then stopped, and samples were processed for analysis of 5‐LO products using RP‐HPLC. Total 5‐LO products measured represent the sum of LTB4, its trans isomers and 5‐hydroxyeicosatetraenoic acid. Data are expressed as means ± SEM of at least three independent experiments. *Difference from control as determined using one‐way ANOVA with Dunnett's multiple comparison test (P < .05)

Assay [2] concerns the target T1, 5‐LO. Further details: endogenous in cells; host or cells: human polymorphonuclear leukocytes isolated from heparinized blood; method as in PMID 22347509, PMID 28680195. To be noted: read-out: IC50 of LT biosynthesis in isolated human neutrophils; cited from earlier work.

Molecules are shown by their SMILES.

`O=C(/C=C/c1cc(O)ccc1O)OCCc1ccccc1` [compound 5]: the “Inhibition of biosynthesis of 5‐LO products in transfected HEK293 cells” value on 5‐LO [1] was “very good inhibitory activity”.

As to `O=C(/C=C/c1ccc(O)c(O)c1)OCCc1ccccc1` [CAPE (2), caffeic acid phenethyl ester, reference compound], at 5‐LO [2], the IC50 is 500 nM.

One may read the IC50 as the point on the concentration scale where inhibition reaches its midpoint.

These data come from PMC6743424, “Phenolic acid phenethylesters and their corresponding ketones: Inhibition of 5‐lipoxygenase and stability in human blood and HepaRG cells” (Pharmacology Research & Perspectives, 2019).
